These compounds were tested on THP-1 viability, CellTiter-Glo luminescence, 72 h (assay: PubChem AID 2252).

Compared with `CC1Cc2ccccc2N1S(=O)(=O)c1cccc(C(=O)N2CC(=O)Nc3ccccc32)c1` (stereo not given), `C[n+]1c2n(c3ccccc31)N=C(c1ccc(-c3ccccc3)cc1)CS2` is 12-fold lower in EC50: 46.1 µM for the first, 3.89 µM for the second.

Compared with `CC(=O)c1c(C)nc(-c2cccc([N+](=O)[O-])c2)n1O`, `COc1cc([N+](=O)[O-])cc(/C=N/NC(=O)CSc2ccccn2)c1O` is higher in EC50: under 0.1 µM for the first, 34.7 µM for the second. The first is the more potent here.

Going from `Cc1cccc2sc(N(CCCN(C)C)C(=O)COc3ccc(Cl)cc3)nc12` to `COc1ccc2nc(N(CCN(C)C)C(=O)/C=C/c3cccs3)sc2c1`, the EC50 falls from 24.9 µM to 16.1 µM (1.5-fold).

Going from `O=c1[nH][nH]c(-c2ccccc2O)c1C(C[N+](=O)[O-])c1ccc(Br)cc1` (stereo not given) to `O=C(/C=C/c1cc(Br)ccc1O)c1ccco1`, the EC50 falls from 21.1 µM to 8.79 µM (2.4-fold). The second is the more potent here.

Compared with `Cc1ccc(-c2nc(C(=O)NCCCN(C)C)cc3c2[nH]c2ccccc23)cc1`, `CN(C)CCOCCOc1ccc(Cl)c2ccccc12` is 4.5-fold higher in EC50: 10.7 µM for the first, 48.3 µM for the second.

First: c1cc2c(cc1C1CCCCC1)c1c3n2CCCNC3CCC1 (stereo not given)
Second: c1ccc2c(c1)CCc1ccccc1C2=C1CCNCC1
The EC50 of the first is 4.9-fold lower: 5.18 µM for the first, 25.2 µM for the second. The first is the more potent here.

First: CC(NCc1ccccc1O)C12CC3CC(CC(C3)C1)C2 (stereo not given)
Second: Nc1nonc1-n1nnc(C(=O)N/N=C/c2ccccc2O)c1CN1CCCC1
The EC50 of the first is 4.7-fold higher: 41.6 µM for the first, 8.87 µM for the second. The second is the more potent here.

`CNC[C@H](Cc1ccccc1)NC[C@@H](Cc1cccc2ccccc12)NCCc1ccc(C)cc1` and `c1ccc(Nc2nc(NCc3ccco3)c3ccccc3n2)cc1` are within 1.5-fold of each other in EC50: 4.01 µM for the first, 4.95 µM for the second.

Compared with `O=C(Nc1nnc(-c2ccco2)o1)c1cccc(Cl)c1`, `C/C(=N\NC(=O)c1cccc(Br)c1)c1ccccn1` is 14-fold lower in EC50: 21.1 µM for the first, 1.55 µM for the second. The second is the more potent here.

Compared with `O=C(Nc1c2ccccc2nc2ccccc12)C(Cl)(Cl)Cl`, `Nc1nc(Nc2ccccc2)nc2ccccc12` is 6-fold lower in EC50: 20 µM for the first, 3.32 µM for the second. The second is the more potent here.

First: CCCCCCCCCCOC(=O)Cn1c(COc2cccc(C)c2)[n+](C)c2ccccc21
Second: CCCCCc1ccc(OCCC[n+]2ccccc2)c(CCCCC)c1
The EC50 of the first is 1.5-fold higher: 2.43 µM for the first, 1.59 µM for the second. The second is the more potent here.

First: COc1cccc(/C=N/NC(=O)c2ccoc2C)c1O
Second: Cc1[nH]cnc1C(=O)N/N=C/c1ccc([N+](=O)[O-])s1
The EC50 of the first is 3.1-fold lower: 4.3 µM for the first, 13.3 µM for the second.

Compared with `COc1ccc(NS(=O)(=O)c2cc(NC(=O)c3ccc(C)s3)ccc2N2CCOCC2)cc1`, `CCOC(=O)c1c(N)sc(C(=O)Nc2ccc3c(c2)OCO3)c1C` is 2-fold higher in EC50: 21.6 µM for the first, 42.7 µM for the second. The first is the more potent here.

Going from `O/N=C/C1=C(Cl)c2ccccc2CC1` to `O=C(CN1C2=NCCCN2c2ccccc21)c1ccc(Br)s1`, the EC50 rises from under 0.1 µM to 41.9 µM.

Compared with `Clc1ccc(C(c2ccc(Cl)cc2)n2cc[n+](CC(OCc3ccc(Cl)cc3Cl)c3ccc(Cl)cc3Cl)c2)cc1` (stereo not given), `COc1cc(CNCCO)cc(Cl)c1OCc1ccc(Cl)cc1Cl` is 7.4-fold higher in EC50: 1.45 µM for the first, 10.8 µM for the second.

`C#CCOCCOCCOCCNc1nc(N2CCN(C(=O)CCCCCCCCCCNC(=O)[C@H](CCCCN)n3cc(C)nn3)CC2)nc(N2CCN(C(=O)CCCCCCCCCCNC(=O)[C@H](CO)n3cc(CCCSC)nn3)CC2)n1` and `C#CCOCCOCCOCCNc1nc(N2CCN(C(=O)CCCCCCCCCCNC(=O)[C@H](CCCCN)n3cc(CCO)nn3)CC2)nc(N2CCN(C(=O)CCCCCCCCCCNC(=O)[C@H](CCCN=C(N)N)n3cc(C[C@@H](C)CC)nn3)CC2)n1` are within 1.5-fold of each other in EC50: 10.4 µM for the first, 11.3 µM for the second.

Compared with `O=C(CNC(=O)c1cccc(F)c1)N/N=C/c1ccc([N+](=O)[O-])s1`, `O=[N+]([O-])c1ccc(O)c2ncccc12` is 4.3-fold lower in EC50: 25.6 µM for the first, 5.99 µM for the second.

Compared with `Cc1c(Cl)cccc1Nc1nc(NCCO)c2ccccc2n1`, `Nc1cccc2nc3ccccc3cc12` is 1.9-fold lower in EC50: 10.1 µM for the first, 5.32 µM for the second.

Going from `COc1ccc(CCN2CCC(Nc3nc4ccccc4n3Cc3ccc(F)cc3)CC2)cc1` to `CC(C)(c1ccccc1)c1ccc(OCCCN2CCNCC2)cc1`, the EC50 rises from 3.8 µM to 15.3 µM (4-fold).

Compared with `Cn1c(-c2ccc(Cl)cc2)cnc1N`, `Oc1ccc(Cl)cc1Cc1cc(Cl)ccc1O` is 1.7-fold lower in EC50: 33.8 µM for the first, 19.5 µM for the second.

Going from `C=CCc1cc(Cl)ccc1OCCCNCCO` to `OC(CNCC1CCCO1)Cn1c2ccc(Cl)cc2c2cc(Cl)ccc21` (stereo not given), the EC50 falls from 43.1 µM to 12.9 µM (3.3-fold).

Going from `Nc1nonc1C(=O)NCCN=Cc1cc(Cc2ccccc2)cc(Br)c1O` to `Cc1nc2ccccc2c(N)c1C(=O)/C=C/c1ccccc1`, the EC50 falls from 28 µM to 3.11 µM (9-fold). The second is the more potent here.

Compared with `O=C1CN(/N=C/c2ccc([N+](=O)[O-])o2)C(=O)N1`, `Cc1nc(N=Nc2ccc(O)cc2)n[nH]1` is 1.7-fold lower in EC50: 47.3 µM for the first, 28.2 µM for the second.

Going from `CC[C@@H](C)[C@H](CN[C@H](CNC)C(C)C)NC[C@@H](C)c1ccc(CC(C)C)cc1` to `CCCCOc1ccc(C(=O)NNC(=S)NC(=O)CC)cc1`, the EC50 falls from 5.96 µM to 3.29 µM (1.8-fold).

First: CCCOc1ccc(C(=O)NNC(=S)NC(=O)CC)cc1
Second: CC1CC(C)CN(C(=O)c2ccc(NC(=O)c3ccc(=O)[nH]c3)cc2)C1 (stereo not given)
The EC50 of the first is 12-fold lower: 2.81 µM for the first, 33 µM for the second. The first is the more potent here.

`COC(=O)c1ccc(CSc2ccc3nnc(-c4ccc(OC)c(OC)c4)n3n2)o1` and `COc1cc(C(=O)O/N=C2\C=CC(=O)C(C)=C2)cc(OC)c1OC` are within 1.5-fold of each other in EC50: 10.3 µM for the first, 7.36 µM for the second.

Going from `COc1ccc(N=CC2=C(Nc3ccc(OC)cc3)c3c(C)nn(-c4ccccn4)c3CC2)cc1` to `Cn1c(N/N=C/c2c[nH]c3ccccc23)nc2ccccc21`, the EC50 rises from 2.16 µM to 8.11 µM (3.8-fold).

Compound `Cc1cc(C)c2c(N)c3ccccc3nc2n1` has an EC50 of 12.4 µM.
